In patent US20130017600A1, “ISOLATION AND/OR PRESERVATION OF DENDRITIC CELLS FOR PROSTATE CANCER IMMUNOTHERAPY” (NORTHWEST BIOTHERAPEUTICS, INC., priority 1995, published 2013):

Columns and labels:
[1] = test system: T cells (PBMC) obtained from prostate cancer patients; assay: T cell proliferation assay (3H-TdR incorporation) with PSMA peptide alone; assay type: cell-based, human
Experimental: One hundred thousand previously frozen T cells (designated “PBMC”) obtained from a prostate cancer patient were cultured in the presence or absence of 20
PSMA peptide in complete medium containing 10% heat-inactivated human serum and 1 unit/ml IL2. One μCi/well ^3H-Thymidine was added on day 6 and cultures were harvested 18 hours later. ^3H-TdR incorporation was counted in a liquid scintillation counter. Each experiment was done in 4 replicates.
One hundred thousand T cells, i.e. PBMC obtained from HLA-A2(+) or HLA-A2(−) prostate cancer patients were cultured in the presence or absence (i.e. “medium control”) of 20 μg PSM-P2 peptide for five (5) days in a humidified, 37° C., 5% CO2 incubator. On day 6, 1 μCi ^3H-Thymidine was added to each well. After another 24 h incubation, cells were harvested and the ^3H-TdR incorporated was counted in a liquid scintillation counter. Each experiment was done in triplicate. Results are presented in FIG. 10 as average cpm and standard error of the mean.

[2] = test system: T cells proliferated as a result of the PSMA peptide; assay: Flow cytometric analysis (CD4/CD8) of T cells proliferated as a result of the PSMA peptide; assay type: cell-based, human; conditions: expanded 5 days with 2 μM peptide and 1 unit/ml IL2; FIG. 9
Experimental: The T cells proliferated as a result of the PSMA peptide were expanded in culture for 5 days, in complete medium containing 2 μM PSMA peptide and 1 unit/ml Il2 for 5 days prior to harvest. One million cells were incubated for 30 minutes on ice with anti-CD4, anti-CD8 antibodies or medium alone, followed by another 30 minute incubation with fluorescein isothiocyanate labelled-2° antibody. Fluorescence-bound was analyzed in a FACScan (Becton Dickinson, San Jose, Calif.) flow cytometer as described above. The percent CD4+ and CD8+ cells were calculated. Results are illustrated in FIG. 9.

[3] = test system: late stage prostate cancer patients; assay: Phase 1 clinical trial: T cell proliferation pre- and post-infusion (stimulation ratio); assay type: in vivo, human; conditions: 7 days after first infusion; all patients of the group; FIG. 11
Experimental: A phase 1 clinical trial has been established using five treatment groups of late stage prostate cancer patients. The groups were treated as follows: Group I, received peptide PSM-P1 having amino acid sequence LLHETDSAV (SEQ. ID. NO 1) only at 0.2, 2.0 and 20.0 μg; Group II, peptide PSM-P2 having amino acid sequence ALFDIESKV (SEQ. ID. NO. 2) only at 0.2, 2.0 and 20.0 μg; Group III, 1×10^6 (#3-4) or 5×10^6 (#1, 2) autologous dendritic cells only; Group IV, up to 2×10^7 autologous dendritic cells loaded with PSM-P1 (SEQ. ID. NO. 1); and Group V, up to 2×10^7 autologous DC's loaded with PSM-P2 (SEQ. ID. NO. 2). All treatments were delivered by infusion. Patients were monitored 7 days post-infusion and their immune function was analyzed by assessing T cell proliferation pre- and post-infusion using ^3H-TdR incorporation as described above in Section 9.

[4] = test system: previously cryopreserved autologous T cells (PBMC) of a prostate cancer patient; assay: T cell proliferation assay with extended life span (EBV-transformed) dendritic cells; assay type: cell-based, human; conditions: antigen presented by extended life span DC's; TT 500 ng/ml or LNCaP lysate equivalent of 10^4 cells/ml; FIG. 7
[5] = test system: previously frozen T cells (PBMC) of a prostate cancer patient; assay: T cell proliferation assay with previously cryopreserved autologous dendritic cells and purified PSMA; assay type: cell-based, human; conditions: previously cryopreserved DC's plus 5 μl/well purified PSMA; vs antigen alone or DC's alone; FIG. 6
Experimental: Dendritic cells were isolated from PBMC of a prostate cancer patient as described above in Section 6 and cultured, as described above, in Section 6, for 7 days in the presence of 500 units/ml GM-CSF and IL-4.
On day 7, the isolated DC's were harvested and cryopreserved using 90% fetal calf serum and 10% dimethylsulfoxide. The cryopreserved DC's were stored frozen for a period of time, thawed in a 37° C. water bath and transferred to a 15 ml polypropylene tube and centrifuged at 1200 rpm for 5 min. The thawed DC's were then resuspended in medium containing 10% heat-inactivated human serum and counted.
One hundred thousand previously frozen T cells obtained from peripheral blood of the same prostate cancer patient (PBMC) were cultured in the presence or absence of 10^4 DC's together with 5 μl/well purified PSMA (see Section 6.1.4 above) in a total volume of 200 μl medium containing 10% heat-inactivated human serum and 1 unit/ml IL-2. One μCi/well ^3H-Thymidine was added on day 6 and cultures were harvested 18 hours later. ^3H-TdR incorporation was counted in a liquid scintillation counter. Each experiment was done in 4 replicates. The average cpm and standard deviation are shown in the graph.

ALFDIESKV [PSM-P2, peptide corresponding to amino acid residues 711-719 of PSMA]
T cell proliferation (3H-TdR incorporation), HLA-A2(−) T cells ([1]; 20 μg peptide, 5 days, FIG. 10): less dramatic enhanced T cell proliferation
T cell proliferation (3H-TdR incorporation), HLA-A2(+) T cells ([1]; 20 μg peptide, 5 days, vs medium control, FIG. 10): greatly enhanced cell proliferation

LLHETDSAV [PSM-P1, peptide corresponding to amino acid residues 4-12 of PSMA]
CTL's share of the T cells stimulated by the peptide [2]: about 41%
T cell proliferation (3H-TdR incorporation) ([1]; PBMC of a prostate cancer patient with peptide vs absence of peptide, FIG. 8): greatly enhanced T cell proliferation
increase in T cell proliferation post- vs pre-infusion [3]: did not demonstrate any increase in T cell proliferation

PSMA: purified prostate specific membrane antigen, immunoprecipitated from human semen with monoclonal antibody 7E11-C5
3HTdR incorporation (T cell proliferation) [4]: significantly increased
3HTdR incorporation (T cell proliferation) [5]: highly significant increase
